Results reported in patent US5432179A, “Piperazine derivatives and pharmaceuticals containing the same” (Zeria Pharmaceutical Co., Ltd., priority 1991, dated 1995).

Tested on: passive cutaneous anaphylaxis (PCA)
Assay: Antiallergic effects: passive cutaneous anaphylaxis (PCA), inhibition of leaked color amount
Type: in vivo, male SD rat
Conditions: rat PCA; oral, 10 mg/4 ml/kg one hour before the administration of antigen
Description: The back of a male SD rat (150-250 g in weight) was shaved in advance. Physiological saline and 0.1 ml of anti DNP-AS (Dinitrophenyl conjugated Ascaris) IgE serum which had been diluted to a suitable concentration with physiological saline were intradermally injected there. Fourty-eight hours after sensitization, the animals were challenged with 1 ml of 0.5% Evans blue physiological saline containing 2.5 mg/ml of DNP-BSA (dinitrophenyl conjugated bovine serum albumin) via the tail vein. Thirty minutes later, they were sacrificed under exsanguination and the dorsal skin was removed and the exuded dye was measured according to the method proposed by Harada et al. [Allergy, 15, 1-7(1966)]. The leaked color amount caused by the passive cutaneous anaphylaxis (PCA) was determined by subtracting the leaked color amount of the site to which physiological saline was administered from that of the PCA site. Each test compound was suspended in 5% gum arabic or 0.5% methylcellulose and the-resulting suspension was orally administered at the rate of 10 mg/4 ml/kg one hour before the administration of antigen. The efficacy of the test compound was evaluated by an ihibition rate (antiallergic effects) of the leaked color amount.

| Compound | Antiallergic effects (inhibition rate of the leaked color amount) |
| --- | --- |
| O=C(Nc1nnn[nH]1)c1ccccc1OCCN1CCN(C(c2ccccc2)c2ccc(Cl)cc2)CC1 (stereo not drawn) [Example 41, 2-[2-[4-[(4-Chlorophenyl)phenylmethyl]-1-piperazinyl]ethoxy]-N-1H-tetrazol-5-yl-benzamide] | 52.3% |
| O=C(Nc1nnn[nH]1)c1ccccc1OCCCN1CCN(C(c2ccccc2)c2ccccc2)CC1 [Example 46, 2-[3-[4-(Diphenylmethyl)-1-piperazinyl]propoxy]-N-1H-tetrazol-5-yl-benzamid] | 59.8% |
| O=C(COCCN1CCN(C(c2ccccc2)c2ccc(Cl)cc2)CC1)Nc1nnn[nH]1 (stereo not drawn) [Example 50, 2-[2-[4-[(4-Chlorophenyl)phenylmethyl]-1-piperazinyl]ethoxy]-N-1H-tetrazol-5-yl-acetamide] | 60.4% |
| 2-[2-[4-[(4-Chlorophenyl)phenylmethyl]-1-piperazinyl]ethoxy]-1-tetrazol-5-ylmethyl [Example 69] | 81.0% |
| O=C(Nc1nnn[nH]1)c1ccccc1SCCN1CCN(C(c2ccccc2)c2ccc(Cl)cc2)CC1 (stereo not drawn) [Example 44, 2-[[2-[4-[(4-Chlorophenyl)phenylmethyl]-1-piperazinyl]ethyl]thio]-N-1H-tetrazol-5-yl-benzamide] | 54.7% |
| O=C(Nc1nnn[nH]1)c1ccccc1OCCCN1CCN(C(c2ccccc2)c2ccc(Cl)cc2)CC1 (stereo not drawn) [Example 45, 2-[3-[4-[(4-Chlorophenyl)phenylmethyl]-1-piperazinyl]propoxy]-N-1H-tetrazol-5-yl-benzamide] | 72.4% |
| O=C(O)c1ccccc1OCCN1CCN(C(c2ccccc2)c2ccc(Cl)cc2)CC1 (stereo not drawn) [Example 5, 2-[2-[4-[(4-Chlorophenyl)phenylmethyl]-1-piperazinyl]ethoxy]benzoic acid] | 86.4% |
| O=C(O)c1ccccc1OCCN1CCN(C(c2ccccc2)c2ccccc2)CC1 [Example 9, 2-[2-[4-(Diphenylmethyl]-1-piperazinyl]ethoxy]-benzoic acid] | 61.9% |

Tested on: contraction reaction of the isolated ileum caused by histamine
Assay: Antihistamic effects: inhibition of histamine-induced contraction of isolated guinea pig ileum (Magnus bath)
Type: cell-based, Hartley male guinea pig
Conditions: Cavia porcellus, histamine 3×10^-7 mole, test compound for 3 minutes before histamine, 30° C., read-out: antihistamic action (50% inhibition concentration: IC50 value)
Description: From a Hartley male guinea pig (300-600 g in weight), the ileum was isolated. The ileum was attached to a holder under a vesting tension of 0.5 g in a Magnus bath (30° C., under aeration) filled with 10 ml of the Tyrode solution. As a contraction reaction of the isolated ileum caused by histamine (3×10^-7 mole), an isometrical change in muscular tension was measured. The ileum was treated with the test compound for 3 minutes before the addition of histamine to study its effects and then its antihistamic action (50% inhibition concentration: IC50 value) was determined.
Incidentally, the IC50 value of Cetirizine (the compound disclosed in Japanese Patent Laid-Open No. 149282/1982) was determined as a control. Its IC value was 2.40 μM.

| Compound | IC50 |
| --- | --- |
| O=C(O)COCCN1CCN(C(c2ccccc2)c2ccc(Cl)cc2)CC1 (stereo not drawn) [Cetirizine] | 2400 nM |
